Earlier results, collected in patent publication US8937081B2, “Statin bioavailability enhancement delivery composition” (PruGen IP Holdings, Inc., priority 2011, dated 2015).

How the values were obtained:
[1] = among the marketed statins
hepatocytes = details: in hepatocytes

| Structure (SMILES) | percentage of serious adverse effects [1] | IC50 (hepatocytes) |
| --- | --- | --- |
| COCc1c(C(C)C)nc(C(C)C)c(/C=C/[C@@H](O)C[C@@H](O)CC(=O)O)c1-c1ccc(F)cc1 [cerivastatin] | largest percentage of serious adverse effects |  |
| CC(C)c1nc(N(C)S(C)(=O)=O)nc(-c2ccc(F)cc2)c1/C=C/[C@@H](O)C[C@@H](O)CC(=O)O [rosuvastatin] |  | low |
